Drawing on patent publication US20120058997A1, “IMIDAZO[1,2-B]PYRIDAZINE AND PYRAZOLO[1,5-A]PYRIMIDINE DERIVATIVES AND THEIR USE AS PROTEIN KINASE INHIBITORS” (SuperGen, Inc., priority 2006, published 2012), this text covers IC50 for 38 compounds.

Molecules are shown by their SMILES. Where two headings read alike, the source gives them in different places.

As a reminder, the IC50 is the concentration at which inhibition is half-maximal.

One assay concerns the target Pim-1 kinase (Homo sapiens, UniProt P11309). The assay can be described thus: Promega Kinase-Glo Pim-1 kinase inhibition assay.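 Also: in vitro Pim-1 reaction run 2 h at 30 °C, then leftover ATP measured by luciferase luminescence, where signal falls as kinase activity rises.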 Format: biochemical. For orientation: Kinase-Glo measures the ATP left after a reaction by luminescence.
For a further assay, the system named is PC-3 Cells. The assay can be described thus: Cell growth inhibition, Cell-Titer-Glo, 96 hours. Format: cell-based.
Another assay concerns K562 Cells. The assay can be described thus: Cell growth inhibition, Cell-Titer-Glo, 96 hours. Format: cell-based.
[1] abbreviates: IC50 (Kinase inhibitory activity), Table V, Pim-1 kinase, Kinase-Glo.
Setting [2] is: Homo sapiens, read-out: IC50 PC-3 Cells (inhibit cell growth to 50% of untreated), Table VI.
The mark [3] stands for this setting: Homo sapiens, K562, read-out: IC50 K562 Cells (inhibit cell growth to 50% of untreated), Table VI.
Where [4] appears, read: Table VIII (results), values in uM, read-out: IC50(Kinase).
Setting [5] is: Homo sapiens, Table IX (results), read-out: IC50 (PC-3).
Setting [6] is: Homo sapiens, K562, Table IX (results), read-out: IC50 (K562).
The mark [7] stands for this setting: Table X, Kinase-Glo, read-out: IC50 on Pim1.
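For IC50 (K562) in this document: luminescent ATP signal as an index of viable cell number, drug-treated versus cells given an equal volume of DMSO vehicle.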
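For IC50 (PC-3) in this document: luciferase luminescence reflecting cellular ATP, used as a proxy for cell number, with compound-treated cells compared against DMSO vehicle control wells.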

Pim-1 kinase, sequence (P11309 whole entry): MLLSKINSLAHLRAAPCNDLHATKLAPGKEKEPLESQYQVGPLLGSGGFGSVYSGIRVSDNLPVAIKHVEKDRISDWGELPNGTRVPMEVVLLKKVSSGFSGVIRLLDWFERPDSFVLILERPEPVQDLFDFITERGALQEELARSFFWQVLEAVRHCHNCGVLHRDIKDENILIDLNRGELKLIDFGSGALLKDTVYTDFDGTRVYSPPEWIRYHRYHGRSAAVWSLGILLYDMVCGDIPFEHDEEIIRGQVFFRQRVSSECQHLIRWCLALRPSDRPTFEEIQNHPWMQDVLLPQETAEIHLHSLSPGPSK

`NS(=O)(=O)c1ccc(CNc2ccc3ncc(-c4ccc(CCC(=O)O)cc4)n3n2)cc1` [Compound 1-1]: the results for the IC50 at Pim-1 kinase (setting [1]), in the assay on PC-3 Cells (setting [2]) and in the assay on K562 Cells (setting [3]) were 4.47 µM, over 300 µM and over 300 µM, respectively.
With `CCC(CO)Nc1ccc2ncc(-c3ccc(NS(C)(=O)=O)cc3)n2n1` (stereo not drawn) [Compound 1-3], the IC50 at Pim-1 kinase (setting [1]) came out at 5.35 µM; with PC-3 Cells (setting [2]) it was 39 µM; with K562 Cells (setting [3]) it was 80.2 µM.
As for `Cc1ccc(S(=O)(=O)Nc2ccc(Nc3ccn4ncc(-c5cccc(N)c5)c4n3)cc2)cc1` [Compound 3-9], the IC50 with PC-3 Cells (setting [2]) came to 12 µM; in the assay on K562 Cells (setting [3]), 20.6 µM.
Turning to `Cc1ccc(S(=O)(=O)Nc2ccc(Nc3ccn4ncc(-c5cccc(N(C)C)c5)c4n3)cc2)cc1` [Compound 3-13], the IC50 stood at 52.1 µM on Pim-1 kinase (setting [1]), 12.8 µM in the assay on PC-3 Cells (setting [2]) and 29.3 µM in the assay with K562 Cells (setting [3]).
On to `CCC(CO)Nc1ccc2ncc(-c3ccc(N(C)C)cc3)n2n1` (stereo not drawn) [Compound 7-1], for which the 50% inhibitory concentration (IC50) against Pim-1 kinase (setting [1]) was 3.99 µM; on Pim-1 kinase (setting [4]) it was 3.99 µM; in the assay on PC-3 Cells (setting [5]), 29.2 µM; in the assay with PC-3 Cells (setting [2]) it was 29.2 µM; in the assay with K562 Cells (setting [6]), 67.1 µM; in the assay on K562 Cells (setting [3]), 67.1 µM.
On to `CN(C)c1cccc(-c2cnc3ccc(NCCCCO)nn23)c1` [Compound 7-4, 12-(3-(3-(dimethylamino)phenyl)imidazo[1,2-b]pyridazin-6-ylamino)butan-1-ol], for which the IC50 on Pim-1 kinase (setting [4]) came to 1.81 µM; in the assay with PC-3 Cells (Table IX (results), read-out: IC50 (PC-3)), 54.6 µM; in the assay with K562 Cells (Table IX (results), read-out: IC50 (K562)), 13.6 µM.
As for `Fc1ccc(-c2ccc3ncc(-c4ccc(F)cc4)n3n2)cc1` [Compound 7-7], the IC50 came to 9.76 µM at Pim-1 kinase (setting [4]), 87.2 µM with PC-3 Cells (setting [5]) and 271 µM with K562 Cells (setting [6]).
Take `Fc1cccc(-c2ccc3ncc(-c4cccc(F)c4)n3n2)c1` [Compound 7-9]: the IC50 on Pim-1 kinase (setting [4]) came out at 86.6 µM; in the assay with PC-3 Cells (setting [5]), 21.2 µM; in the assay with K562 Cells (setting [6]) it was 6.76 µM.
`FC(F)(F)Oc1cccc(-c2ccc3ncc(-c4cccc(OC(F)(F)F)c4)n3n2)c1` [Compound 7-13]: the IC50 in the assay with PC-3 Cells (setting [5]) is 63.2 µM; with K562 Cells (setting [6]), 19.1 µM.
`Fc1cccc(-c2cnc3ccc(NC4CCCC4)nn23)c1` [Compound 7-15, N-cyclopentyl-3-(3-fluorophenyl)imidazo[1,2-b]pyridazin-6-amine]: the IC50 amounted to 5.35 µM on Pim-1 kinase (setting [4]), 70.2 µM with PC-3 Cells (setting [5]) and 20.8 µM in the assay with K562 Cells (setting [6]).
For the compound `CC[C@@H](N)COc1ccc2ncc(-c3cccc(OC(F)(F)F)c3)n2n1` [Compound 7-18, (R)-1-(3-(3-(trifluoromethoxy)phenyl)imidazo[1,2-b]pyridazin-6-yloxy)butan-2-amine], the IC50 at Pim-1 kinase (Table VIII (results), values in nM, read-out: IC50(Kinase)) is 0.481 µM; in the assay with K562 Cells (setting [6]) it was 5.82 µM.
In the case of `CC(C)N1CCC(CNc2ccc3ncc(-c4cccc(OC(F)(F)F)c4)n3n2)CC1` [Compound 7-35, N-((1-isopropylpiperidin-4-yl)methyl)-3-(3(trifluoromethoxy)phenyl)imidazo[1,2b]pyridazin-6-amine], the IC50 in the assay with PC-3 Cells (setting [5]) was found to be 12.8 µM; with K562 Cells (setting [6]), 2.92 µM.
For `CCN1CCC(CNc2nn3c(-c4cccc(OC(F)(F)F)c4)cnc3cc2C)CC1` [Compound 7-38, N-((1-ethylpiperidin-4-yl)methyl)-7-methyl-3-((trifluoromethoxy)phenyl)imidazo [1,2-b]pyridazin-6-amine], in that order: 5.68 µM and 1.41 µM.
Turning to `CCN1CCC(CNc2ccc3ncc(-c4cccc(OC(F)(F)F)c4)n3n2)CC1` [Compound 7-39, N-((1-ethylpiperidin-4-yl)methyl)-3-(3-(trifluoromethoxy)phenyl)imidazo[1,2-b]pyridazin-6-amine], the IC50 in the assay with PC-3 Cells (setting [5]) came to 5.82 µM; in the assay on K562 Cells (setting [6]) it was 1.66 µM.
In the case of `COc1ccc(OC(F)(F)F)cc1-c1cnc2ccc(NCC3CCN(C)CC3)nn12` [Compound 7-42, 3-(2-methoxy-5-(trifluoromethoxy)phenyl)-N-((1-methylpiperidin-4-yl)methyl)-imidazo[1,2-b]pyridazin-6-amine], the figures for the IC50 in the assay on PC-3 Cells (setting [5]) and in the assay with K562 Cells (setting [6]) were 8.96 µM and 9.6 µM, respectively.
Regarding `CN1CCC(CNc2ccc3ncc(-c4cc(OC(F)(F)F)ccc4O)n3n2)CC1` [Compound 7-43, 3-(2-hydroxy-5-(trifluoromethoxy)phenyl)-N-((1-methylpiperidin-4-yl)methyl)-imidazo[1,2-b]pyridazin-6-amine], the IC50 on Pim-1 kinase (setting [4]) was determined as 1.1 µM; with K562 Cells (setting [6]), 4.9 µM.
With `COc1ccc(OC(F)(F)F)cc1-c1cnc2ccc(NCCC3CCN(C)CC3)nn12` [Compound 7-44, 3-(2-methoxy-5-(trifluoromethoxy)phenyl)-N-(2-(1-methylpiperidin-4-yl)ethyl)-imidazo[1,2-b]pyridazin-6-amine], the IC50 with PC-3 Cells (setting [5]) worked out at 17.7 µM; with K562 Cells (setting [6]), 5.7 µM.
`CN1CCC(CCNc2ccc3ncc(-c4cc(OC(F)(F)F)ccc4O)n3n2)CC1` [Compound 7-45, 3-(2-Hydroxyl-5-(trifluoromethoxy)phenyl)-N-(2-(1-methylpiperidin-4-yl)ethyl)-imidazo[1,2-b]pyridazin-6-amine]: the IC50 stood at 52 µM in the assay with PC-3 Cells (setting [5]) and 14.9 µM with K562 Cells (setting [6]).
In the case of `CCN1CCC(CNc2ccc3ncc(-c4cc(OC(F)(F)F)ccc4OC)n3n2)CC1` [Compound 7-46, N-((1-ethylpiperidin-4-yl)methyl)-3-(2-methoxy-5-(trifluoromethoxy)phenyl)-imidazol[1,2-b]pyridazin-6-amine], the figures for the IC50 with PC-3 Cells (setting [5]) and in the assay with K562 Cells (setting [6]) were 10.6 µM and 5.3 µM, respectively.
The matching figures for `COc1ccc(OC(F)(F)F)cc1-c1cnc2ccc(NCC3CCN(C(C)C)CC3)nn12` [Compound 7-48, N-((1-isopropylpiperidin-4-yl)methyl)-3-(2-methoxy-5-(trifluoromethoxy)phenyl)-imidazo[1,2-b]pyridazin-6-amine]: 17.7 µM and 5.7 µM.
As for `C[C@]1(O)CC[C@H](Nc2ccn3ncc(-c4cccc(OC(F)(F)F)c4)c3n2)CC1` [Compound 8-48, 1-Methyl-4-((3-(3-(trifluoromethoxy)phenyl)pyrazolo[1,5-a]pyrimidin-5-yl)amino)-trans-cyclohexanol], the IC50 on Pim-1 kinase (setting [7]) lay in the range of 0.1 to 1 µM.
In the case of `CO[C@H]1CC[C@H](Nc2ccn3ncc(-c4cccc(OC(F)(F)F)c4)c3n2)CC1` [Compound 8-49, 4-(trans-Methoxycyclohexyl)-3-(3-(trifluoromethoxy)phenyl)pyrazolo[1,5-a]pyrimidin-5-amine], at Pim-1 kinase (setting [7]), the IC50 fell in the range of 0.1 to 1 µM.
The same measure, in the same setting: to `FC(F)(F)Oc1cccc(-c2cnn3ccc(NC4CCOCC4)nc23)c1` [Compound 8-50, N-(Tetrahydro-2H-pyran-4-yl)-3-(3-(trifluoromethoxy)phenyl)pyrazolo[1,5-a]pyrimidin-5-amine] belongs 0.1 to 1 µM.
The same measure, in the same setting: to `O=S1(=O)CCC(CNc2ccn3ncc(-c4cccc(OC(F)(F)F)c4)c3n2)CC1` [Compound 8-51, 4-(((3-(3-(Trifluoromethoxy)phenyl)pyrazolo[1,5-a]pyrimidin-5-yl)amino)methyl)tetrahydro-2H-thiopyran 1,1-dioxide] belongs 0.1 to 1 µM; to `N[C@H]1CC[C@H](Nc2ccn3ncc(-c4cccc(OC(F)(F)F)c4)c3n2)CC1` [Compound 8-52, N-(3-(3-(Trifluoromethoxy)phenyl)pyrazolo[1,5-a]pyrimidin-5-yl)cyclohexane-1,4-trans-diamine], under 0.01 µM; to `C[C@]1(O)CC[C@H](Nc2ccn3ncc(-c4cccc(C(F)(F)F)c4)c3n2)CC1` [Compound 8-55, 1-Methyl-4-((3-(3-(trifluoromethyl)phenyl)pyrazolo[1,5-a]pyrimidin-5-yl)amino)-trans-cyclohexanol], 0.01 to 0.1 µM.
For the compound `CC(C)(O)[C@H]1CC[C@H](Nc2ccn3ncc(-c4cccc(C(F)(F)F)c4)c3n2)CC1` [Compound 8-56], the IC50 at Pim-1 kinase (setting [7]) fell in the range of 0.01 to 0.1 µM.
The same measure, in the same setting: to `CO[C@H]1CC[C@H](Nc2ccn3ncc(-c4cccc(C(F)(F)F)c4)c3n2)CC1` [Compound 8-57, 4-(trans-Methoxycyclohexyl)-3-(3-(trifluoromethyl)phenyl)pyrazolo[1,5-a]pyrimidin-5-amine] belongs 0.01 to 0.1 µM.
As for `FC(F)(F)c1cccc(-c2cnn3ccc(NC4CCOCC4)nc23)c1` [Compound 8-58, N-(Tetrahydro-2H-pyran-4-yl)-3-(3-(trifluoromethyl)phenyl)pyrazolo[1,5-a]pyrimidin-5-amine], the IC50 at Pim-1 kinase (setting [7]) was 0.1 to 1 µM.
On to `O=S1(=O)CCC(CNc2ccn3ncc(-c4cccc(C(F)(F)F)c4)c3n2)CC1` [Compound 8-59], for which the IC50 at Pim-1 kinase (setting [7]) lay in the range of 0.1 to 1 µM.
For `O=S1(=O)CCN(c2ccn3ncc(-c4cccc(C(F)(F)F)c4)c3n2)CC1` [Compound 8-60], the IC50 on Pim-1 kinase (setting [7]) lay in the range of 1 to 5 µM.
Take `C[C@]1(O)CC[C@H](Nc2ccn3ncc(-c4cccc(Cl)c4)c3n2)CC1` [Compound 8-62]: the IC50 at Pim-1 kinase (setting [7]) lay within 0.1 to 1 µM.
Regarding `CC(C)(O)[C@H]1CC[C@H](Nc2ccn3ncc(-c4cccc(Cl)c4)c3n2)CC1` [Compound 8-63], the IC50 at Pim-1 kinase (setting [7]) was in the range of 0.01 to 0.1 µM.
On to `CO[C@H]1CC[C@H](Nc2ccn3ncc(-c4cccc(Cl)c4)c3n2)CC1` [Compound 8-64], for which the IC50 on Pim-1 kinase (setting [7]) fell in the range of 0.01 to 0.1 µM.
Still for that read-out and setting: to `Clc1cccc(-c2cnn3ccc(NC4CCOCC4)nc23)c1` [Compound 8-65] belongs 0.1 to 1 µM; to `O=S1(=O)CCC(CNc2ccn3ncc(-c4cccc(Cl)c4)c3n2)CC1` [Compound 8-66], 0.1 to 1 µM; to `CN1CCC(CNc2ccn3ncc(-c4cccc(OC(F)(F)F)c4)c3n2)CC1` [Compound 8-67], 0.01 to 0.1 µM.
Regarding `N[C@H]1CC[C@H](Nc2ccc3ncc(-c4cccc(Cl)c4)n3n2)CC1` [Compound 8-68], on Pim-1 kinase (setting [7]), the IC50 lay in the range of 0.01 to 0.1 µM.
